What all share (type): cell-based
Experiment [1] has as its system glioblastoma cell line U87. Description: Cytotoxicity in cancer cell lines (CellTiter-Glo), U87. As to conditions: Homo sapiens, U-87 MG, U87 cells, mean of three tests. The source says: (§1) All cells were obtained from ATCC. […] Normocin® was obtained from InvivoGen. FBS was obtained from Gibco. […] All test compounds were synthesized as described herein.
A general note: ATP-based viability assays read luminescence as a measure of living cells.

For experiment [2], the system named is immortalized human T lymphocyte Jurkat cells. The experiment can be described thus: Cytotoxicity in cancer cell lines (CellTiter-Glo), Jurkat. As to conditions: mean of three tests.
Description: as §1

Experiment [3] has as its system melanoma cell line RPMI-7951. Description: Cytotoxicity in cancer cell lines (CellTiter-Glo), RPMI-7951. The settings on record: Homo sapiens, RPMI-7951 cells, mean of three tests.
Description: as §1

Experiment [4] deals with human pancreatic carcinoma cell line PL45. The experiment can be described thus: Cytotoxicity in cancer cell lines (CellTiter-Glo), PL45. The settings on record: PL45 cells, mean of three tests.
Description: as §1

Another experiment concerns melanoma cell line A375. Description: Cytotoxicity in cancer cell lines (CellTiter-Glo), A375. As to conditions: Homo sapiens, A-375, A375 cells, mean of three tests.
Description: as §1

The mark [5] stands for this setting: 48 hours, read-out: Cytotoxicity EC50 at 48 hours, PL45.
The mark [6] stands for this setting: 48 hours, read-out: Cytotoxicity EC50 at 48 hours, A375.

The values below come from US12404259B2, “Inhibitors of extracellular signal-regulated kinase” (GEN1E LIFESCIENCES INC., priority 2023, dated 2025).

Molecules are shown by their SMILES. Read-outs that look alike come from different tables or passages of the source.

Usually EC50 stands for the concentration needed to bring the measured effect to its halfway point. With `O=S1(=O)C=CC(OS(=O)(=O)c2ccc(Oc3ccccc3)cc2)C1` (centres unmarked) [Compound 1, 1,1-dioxido-2,3-dihydrothiophen-3-yl 4-phenoxybenzenesulfonate], the EC50 in experiment [1] (48 hours, read-out: Cytotoxicity EC50 at 48 hours, U87) came to 1300 nM; in experiment [1] (72 hours, read-out: Cytotoxicity EC50 at 72 hours, U87), 900 nM; in experiment [2] (48 hours, read-out: Cytotoxicity EC50 at 48 hours, Jurkat), 400 nM; in experiment [2] (72 hours, read-out: Cytotoxicity EC50 at 72 hours, Jurkat), 200 nM; in experiment [3] (48 hours, read-out: Cytotoxicity EC50 at 48 hours, RPMI) it was 600 nM; in experiment [3] (72 hours, read-out: Cytotoxicity EC50 at 72 hours, RPMI), 200 nM. In addition, the EC50 in experiment [4] (setting [5]) was 2100 nM; in experiment [4] (72 hours, read-out: Cytotoxicity EC50 at 72 hours, PL45) it was 200 nM; in the experiment with melanoma cell line A375 (setting [6]), 2500 nM; with melanoma cell line A375 (72 hours, read-out: Cytotoxicity EC50 at 72 hours, A375) it was 13000 nM.
As to `O=S1(=O)C=C[C@H](OS(=O)(=O)c2ccc(Oc3ccccc3)cc2)C1` [Compound 1a, (S)-1,1-dioxido-2,3-dihydrothiophen-3-yl 4-phenoxybenzenesulfonate], the results for the EC50 (in experiment [4] (setting [5]); in the experiment on melanoma cell line A375 (setting [6])) were 2100 nM and 1300 nM, respectively.
The corresponding values for `O=S1(=O)C=C[C@@H](OS(=O)(=O)c2ccc(Oc3ccccc3)cc2)C1` [Compound 1b, (R)-1,1-dioxido-2,3-dihydrothiophen-3-yl 4-phenoxybenzenesulfonate] are 3000 nM and 2500 nM.
